Legend:
Test in all cases: KINOMEscan kinase profiling
Format in all cases: binding
AAK1 = biological target: T1, AAK1 (Homo sapiens, UniProt Q2M2I8); settings: read-out: %Inhibition by 10 μM SPA70
T1 construct: purchased DiscoverX (Ambit Biosciences) KINOMEscan
Summary of the method: (§1)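 KINOMEscan profiling followed a published protocol. Kinases whose inhibition exceeded a set cut-off were then tested in a dilution series beginning at 30 µM.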

ACVR1B = biological target: T2, ACVR1B (Homo sapiens, UniProt P36896); settings: read-out: %Inhibition by 10 μM SPA70
T2 construct: purchased DiscoverX (Ambit Biosciences) KINOMEscan
Summary of the method: as §1

AKT3 = biological target: T3, AKT3 (Homo sapiens, UniProt Q9Y243); settings: read-out: %Inhibition by 10 μM SPA70
T3 construct: purchased DiscoverX (Ambit Biosciences) KINOMEscan
Summary of the method: as §1

AMPK-alpha1 = biological target: T4, AMPK-alpha1 (Homo sapiens, UniProt Q13131); settings: read-out: %Inhibition by 10 μM SPA70
T4 construct: purchased DiscoverX (Ambit Biosciences) KINOMEscan
Summary of the method: as §1

ARK5 = biological target: T5, ARK5 (Homo sapiens, UniProt O60285)
T5 construct: purchased DiscoverX (Ambit Biosciences) KINOMEscan
Summary of the method: as §1

AURKC = biological target: T6, AURKC (Homo sapiens, UniProt Q9UQB9); settings: read-out: %Inhibition by 10 μM SPA70
T6 construct: purchased DiscoverX (Ambit Biosciences) KINOMEscan
Summary of the method: as §1

BMX = biological target: T7, BMX (Homo sapiens, UniProt P51813); settings: read-out: %Inhibition by 10 μM SPA70
T7 construct: purchased DiscoverX (Ambit Biosciences) KINOMEscan
Summary of the method: as §1

CDK9 = biological target: T8, CDK9 (Homo sapiens, UniProt P50750); settings: read-out: %Inhibition by 10 μM SPA70
T8 construct: purchased DiscoverX (Ambit Biosciences) KINOMEscan
Summary of the method: as §1

CDKL3 = biological target: T9, CDKL3 (Homo sapiens, UniProt Q8IVW4); settings: read-out: %Inhibition by 10 μM SPA70
T9 construct: purchased DiscoverX (Ambit Biosciences) KINOMEscan
Summary of the method: as §1

DAPK3 = biological target: T10, DAPK3 (Homo sapiens, UniProt O43293); settings: read-out: %Inhibition by 10 μM SPA70
T10 construct: purchased DiscoverX (Ambit Biosciences) KINOMEscan
Summary of the method: as §1

DDR1 = biological target: T11, DDR1 (Homo sapiens, UniProt Q08345); settings: read-out: %Inhibition by 10 μM SPA70
T11 construct: purchased DiscoverX (Ambit Biosciences) KINOMEscan
Summary of the method: as §1

DLK = biological target: T12, DLK (Homo sapiens, UniProt Q12852)
T12 construct: purchased DiscoverX (Ambit Biosciences) KINOMEscan
Summary of the method: as §1

EPHA3 = biological target: T13, EPHA3 (Homo sapiens, UniProt P29320); settings: read-out: %Inhibition by 10 μM SPA70
T13 construct: purchased DiscoverX (Ambit Biosciences) KINOMEscan
Summary of the method: as §1

EPHA5 = biological target: T14, EPHA5 (Homo sapiens, UniProt P54756)
T14 construct: purchased DiscoverX (Ambit Biosciences) KINOMEscan
Summary of the method: as §1

EPHB1 = biological target: T15, EPHB1 (Homo sapiens, UniProt P54762); settings: read-out: %Inhibition by 10 μM SPA70
T15 construct: purchased DiscoverX (Ambit Biosciences) KINOMEscan
Summary of the method: as §1

EPHB6 = biological target: T16, EPHB6 (Homo sapiens, UniProt O15197); settings: read-out: %Inhibition by 10 μM SPA70
T16 construct: purchased DiscoverX (Ambit Biosciences) KINOMEscan
Summary of the method: as §1

ERK4 = biological target: T17, ERK4 (Homo sapiens, UniProt P31152); settings: read-out: %Inhibition by 10 μM SPA70
T17 construct: purchased DiscoverX (Ambit Biosciences) KINOMEscan
Summary of the method: as §1

FLT1 = biological target: T18, FLT1 (Homo sapiens, UniProt P17948); settings: read-out: %Inhibition by 10 μM SPA70
T18 construct: purchased DiscoverX (Ambit Biosciences) KINOMEscan
Summary of the method: as §1

GRK1 = biological target: T19, GRK1 (Homo sapiens, UniProt Q15835); settings: read-out: %Inhibition by 10 μM SPA70
T19 construct: purchased DiscoverX (Ambit Biosciences) KINOMEscan
Summary of the method: as §1

GRK4 = biological target: T20, GRK4 (Homo sapiens, UniProt P32298); settings: read-out: %Inhibition by 10 μM SPA70
T20 construct: purchased DiscoverX (Ambit Biosciences) KINOMEscan
Summary of the method: as §1

HUNK = biological target: T21, HUNK (Homo sapiens, UniProt P57058); settings: read-out: %Inhibition by 10 μM SPA70
T21 construct: purchased DiscoverX (Ambit Biosciences) KINOMEscan
Summary of the method: as §1

INSR = biological target: T22, INSR (Homo sapiens, UniProt P06213); settings: read-out: %Inhibition by 10 μM SPA70
T22 construct: purchased DiscoverX (Ambit Biosciences) KINOMEscan
Summary of the method: as §1

JNK3 = biological target: T23, JNK3 (Homo sapiens, UniProt P53779)
T23 construct: purchased DiscoverX (Ambit Biosciences) KINOMEscan
Summary of the method: as §1

LKB1 = biological target: T24, LKB1 (Homo sapiens, UniProt Q15831); settings: read-out: %Inhibition by 10 μM SPA70
T24 construct: purchased DiscoverX (Ambit Biosciences) KINOMEscan
Summary of the method: as §1

MARK1 = biological target: T25, MARK1 (Homo sapiens, UniProt Q9P0L2); settings: read-out: %Inhibition by 10 μM SPA70
T25 construct: purchased DiscoverX (Ambit Biosciences) KINOMEscan
Summary of the method: as §1

MEK2 = biological target: T26, MEK2 (Homo sapiens, UniProt P36507); settings: read-out: %Inhibition by 10 μM SPA70
T26 construct: purchased DiscoverX (Ambit Biosciences) KINOMEscan
Summary of the method: as §1

MET = biological target: T27, MET (Homo sapiens, UniProt P08581)
T27 construct: purchased DiscoverX (Ambit Biosciences) KINOMEscan
Summary of the method: as §1

MKNK1 = biological target: T28, MKNK1 (Homo sapiens, UniProt Q9BUB5); settings: read-out: %Inhibition by 10 μM SPA70
T28 construct: purchased DiscoverX (Ambit Biosciences) KINOMEscan
Summary of the method: as §1

MKNK2 = biological target: T29, MKNK2 (Homo sapiens, UniProt Q9HBH9); settings: read-out: %Inhibition by 10 μM SPA70
T29 construct: purchased DiscoverX (Ambit Biosciences) KINOMEscan
Summary of the method: as §1

MST4 = biological target: T30, MST4 (Homo sapiens, UniProt Q9P289); settings: read-out: %Inhibition by 10 μM SPA70
T30 construct: purchased DiscoverX (Ambit Biosciences) KINOMEscan
Summary of the method: as §1

MTOR = biological target: T31, MTOR (Homo sapiens, UniProt P42345); settings: read-out: %Inhibition by 10 μM SPA70
T31 construct: purchased DiscoverX (Ambit Biosciences) KINOMEscan
Summary of the method: as §1

NEK11 = biological target: T32, NEK11 (Homo sapiens, UniProt Q8NG66); settings: read-out: %Inhibition by 10 μM SPA70
T32 construct: purchased DiscoverX (Ambit Biosciences) KINOMEscan
Summary of the method: as §1

NEK4 = biological target: T33, NEK4 (Homo sapiens, UniProt P51957); settings: read-out: %Inhibition by 10 μM SPA70
T33 construct: purchased DiscoverX (Ambit Biosciences) KINOMEscan
Summary of the method: as §1

RET = biological target: T34, RET (Homo sapiens, UniProt P07949); settings: read-out: %Inhibition by 10 μM SPA70
T34 construct: purchased DiscoverX (Ambit Biosciences) KINOMEscan
Summary of the method: as §1

RIPK1 = biological target: T35, RIPK1 (Homo sapiens, UniProt Q13546); settings: read-out: %Inhibition by 10 μM SPA70
T35 construct: purchased DiscoverX (Ambit Biosciences) KINOMEscan
Summary of the method: as §1

RIPK4 = biological target: T36, RIPK4 (Homo sapiens, UniProt P57078); settings: read-out: %Inhibition by 10 μM SPA70
T36 construct: purchased DiscoverX (Ambit Biosciences) KINOMEscan
Summary of the method: as §1

[1] = biological target: T37, RPS6KA5(Kin.Dom.1-N-terminal) (Homo sapiens, UniProt O75582); settings: read-out: %Inhibition by 10 μM SPA70
T37 construct: RPS6KA5(Kin.Dom.1-N-terminal); purchased DiscoverX (Ambit Biosciences) KINOMEscan
Summary of the method: as §1

SIK2 = biological target: T38, SIK2 (Homo sapiens, UniProt Q9H0K1); settings: read-out: %Inhibition by 10 μM SPA70
T38 construct: purchased DiscoverX (Ambit Biosciences) KINOMEscan
Summary of the method: as §1

TAOK2 = biological target: T39, TAOK2 (Homo sapiens, UniProt Q9UL54); settings: read-out: %Inhibition by 10 μM SPA70
T39 construct: purchased DiscoverX (Ambit Biosciences) KINOMEscan
Summary of the method: as §1

TAOK3 = biological target: T40, TAOK3 (Homo sapiens, UniProt Q9H2K8); settings: read-out: %Inhibition by 10 μM SPA70
T40 construct: purchased DiscoverX (Ambit Biosciences) KINOMEscan
Summary of the method: as §1

YES = biological target: T41, YES (Homo sapiens, UniProt P07947); settings: read-out: %Inhibition by 10 μM SPA70
T41 construct: purchased DiscoverX (Ambit Biosciences) KINOMEscan
Summary of the method: as §1

YSK4 = biological target: T42, YSK4 (Homo sapiens, UniProt Q56UN5); settings: read-out: %Inhibition by 10 μM SPA70
T42 construct: purchased DiscoverX (Ambit Biosciences) KINOMEscan
Summary of the method: as §1

T17 sequence (P31152 whole entry): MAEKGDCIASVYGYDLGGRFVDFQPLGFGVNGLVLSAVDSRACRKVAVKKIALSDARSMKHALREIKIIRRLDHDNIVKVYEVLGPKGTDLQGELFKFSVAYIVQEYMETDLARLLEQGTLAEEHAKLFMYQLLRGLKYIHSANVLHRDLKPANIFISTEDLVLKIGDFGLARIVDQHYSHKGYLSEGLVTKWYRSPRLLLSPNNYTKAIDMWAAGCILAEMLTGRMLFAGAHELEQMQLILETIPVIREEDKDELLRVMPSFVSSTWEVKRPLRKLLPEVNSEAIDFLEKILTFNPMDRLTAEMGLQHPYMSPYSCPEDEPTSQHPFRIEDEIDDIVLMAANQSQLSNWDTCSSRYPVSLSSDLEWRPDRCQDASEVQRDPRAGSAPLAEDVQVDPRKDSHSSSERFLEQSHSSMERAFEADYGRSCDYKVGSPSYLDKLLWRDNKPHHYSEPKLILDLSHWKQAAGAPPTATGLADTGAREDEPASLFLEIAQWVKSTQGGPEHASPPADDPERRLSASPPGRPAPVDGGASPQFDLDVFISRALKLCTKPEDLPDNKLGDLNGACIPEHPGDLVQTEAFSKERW
T39 sequence (Q9UL54 whole entry): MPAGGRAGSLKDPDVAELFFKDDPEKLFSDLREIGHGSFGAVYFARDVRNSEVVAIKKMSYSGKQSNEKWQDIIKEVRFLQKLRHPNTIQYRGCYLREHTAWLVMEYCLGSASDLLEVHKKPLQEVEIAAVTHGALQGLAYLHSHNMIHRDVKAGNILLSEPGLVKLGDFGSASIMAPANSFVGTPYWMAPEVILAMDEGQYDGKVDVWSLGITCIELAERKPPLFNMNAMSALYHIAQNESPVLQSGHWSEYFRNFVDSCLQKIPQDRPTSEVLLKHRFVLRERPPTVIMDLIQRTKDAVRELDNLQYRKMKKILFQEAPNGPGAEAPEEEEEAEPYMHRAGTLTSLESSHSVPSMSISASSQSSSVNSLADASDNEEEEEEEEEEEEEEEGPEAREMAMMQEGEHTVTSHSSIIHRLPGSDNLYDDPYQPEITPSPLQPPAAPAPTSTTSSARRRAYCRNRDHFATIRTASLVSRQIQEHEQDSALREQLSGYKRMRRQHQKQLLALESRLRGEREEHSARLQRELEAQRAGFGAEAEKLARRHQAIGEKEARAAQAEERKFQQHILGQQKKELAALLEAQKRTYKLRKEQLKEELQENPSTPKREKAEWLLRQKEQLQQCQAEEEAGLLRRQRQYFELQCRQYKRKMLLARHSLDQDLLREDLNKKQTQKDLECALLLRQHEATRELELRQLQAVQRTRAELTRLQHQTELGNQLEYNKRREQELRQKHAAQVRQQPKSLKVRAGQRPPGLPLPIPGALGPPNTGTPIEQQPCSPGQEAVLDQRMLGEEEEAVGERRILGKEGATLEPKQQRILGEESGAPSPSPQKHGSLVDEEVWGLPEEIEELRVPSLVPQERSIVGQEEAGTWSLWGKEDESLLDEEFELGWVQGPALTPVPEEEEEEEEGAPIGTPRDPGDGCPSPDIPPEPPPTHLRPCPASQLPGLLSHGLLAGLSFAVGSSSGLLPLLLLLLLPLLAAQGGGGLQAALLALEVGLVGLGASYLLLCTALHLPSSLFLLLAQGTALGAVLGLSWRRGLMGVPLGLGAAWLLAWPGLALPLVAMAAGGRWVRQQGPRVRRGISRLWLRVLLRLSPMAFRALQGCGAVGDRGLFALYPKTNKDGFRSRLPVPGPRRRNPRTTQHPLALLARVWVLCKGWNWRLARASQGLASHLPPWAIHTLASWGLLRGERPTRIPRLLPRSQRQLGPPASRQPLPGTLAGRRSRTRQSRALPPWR
T42 sequence (Q56UN5 whole entry): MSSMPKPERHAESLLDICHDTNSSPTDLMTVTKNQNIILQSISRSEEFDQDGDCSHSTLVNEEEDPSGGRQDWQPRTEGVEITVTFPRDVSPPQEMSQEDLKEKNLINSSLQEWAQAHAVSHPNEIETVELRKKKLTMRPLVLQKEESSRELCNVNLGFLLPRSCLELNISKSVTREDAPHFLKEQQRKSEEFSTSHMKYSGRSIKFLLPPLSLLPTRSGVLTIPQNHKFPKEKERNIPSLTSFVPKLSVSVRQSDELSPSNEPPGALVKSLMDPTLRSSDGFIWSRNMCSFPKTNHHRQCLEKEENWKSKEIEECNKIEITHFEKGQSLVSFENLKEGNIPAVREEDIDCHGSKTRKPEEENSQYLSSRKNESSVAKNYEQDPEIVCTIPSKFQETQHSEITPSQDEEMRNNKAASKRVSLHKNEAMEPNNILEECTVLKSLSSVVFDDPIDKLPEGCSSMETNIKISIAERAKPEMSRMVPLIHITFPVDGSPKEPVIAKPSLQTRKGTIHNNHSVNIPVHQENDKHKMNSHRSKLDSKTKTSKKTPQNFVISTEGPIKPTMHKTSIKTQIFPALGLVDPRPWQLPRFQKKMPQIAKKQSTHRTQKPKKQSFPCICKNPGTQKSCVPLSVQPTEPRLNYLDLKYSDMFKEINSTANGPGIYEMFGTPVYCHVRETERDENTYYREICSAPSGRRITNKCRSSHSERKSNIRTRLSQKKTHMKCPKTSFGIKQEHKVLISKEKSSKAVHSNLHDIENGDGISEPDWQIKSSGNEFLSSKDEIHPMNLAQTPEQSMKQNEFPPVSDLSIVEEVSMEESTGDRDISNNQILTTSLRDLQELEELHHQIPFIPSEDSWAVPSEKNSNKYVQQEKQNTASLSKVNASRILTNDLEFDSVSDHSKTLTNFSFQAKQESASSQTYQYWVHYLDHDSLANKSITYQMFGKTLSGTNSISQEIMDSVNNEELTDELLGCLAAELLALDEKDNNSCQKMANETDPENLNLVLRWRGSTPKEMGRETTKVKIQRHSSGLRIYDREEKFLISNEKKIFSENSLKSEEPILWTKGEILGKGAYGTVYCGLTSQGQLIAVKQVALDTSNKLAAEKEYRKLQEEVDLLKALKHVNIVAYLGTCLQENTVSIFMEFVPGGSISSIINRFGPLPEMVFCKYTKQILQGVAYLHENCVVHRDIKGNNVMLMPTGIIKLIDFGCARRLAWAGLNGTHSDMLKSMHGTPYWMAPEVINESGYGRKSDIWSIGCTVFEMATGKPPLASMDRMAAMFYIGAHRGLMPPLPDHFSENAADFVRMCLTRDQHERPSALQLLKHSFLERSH
T5 sequence (O60285 whole entry): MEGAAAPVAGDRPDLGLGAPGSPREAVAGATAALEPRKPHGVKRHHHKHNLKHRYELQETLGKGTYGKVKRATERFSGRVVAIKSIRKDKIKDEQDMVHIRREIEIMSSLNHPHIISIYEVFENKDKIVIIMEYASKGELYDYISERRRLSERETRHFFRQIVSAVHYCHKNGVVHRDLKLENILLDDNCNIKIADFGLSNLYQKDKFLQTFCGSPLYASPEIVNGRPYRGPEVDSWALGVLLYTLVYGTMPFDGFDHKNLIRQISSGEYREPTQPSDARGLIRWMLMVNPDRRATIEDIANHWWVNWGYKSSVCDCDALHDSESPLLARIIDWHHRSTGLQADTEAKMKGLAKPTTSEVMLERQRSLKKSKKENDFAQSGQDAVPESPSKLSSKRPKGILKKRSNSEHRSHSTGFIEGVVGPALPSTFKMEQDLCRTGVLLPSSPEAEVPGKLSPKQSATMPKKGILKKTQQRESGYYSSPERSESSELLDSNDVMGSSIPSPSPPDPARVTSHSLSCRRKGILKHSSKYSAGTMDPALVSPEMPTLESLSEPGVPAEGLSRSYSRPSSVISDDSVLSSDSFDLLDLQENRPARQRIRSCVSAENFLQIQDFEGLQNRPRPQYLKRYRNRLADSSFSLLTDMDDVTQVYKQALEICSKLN
T34 sequence (P07949 29-1114): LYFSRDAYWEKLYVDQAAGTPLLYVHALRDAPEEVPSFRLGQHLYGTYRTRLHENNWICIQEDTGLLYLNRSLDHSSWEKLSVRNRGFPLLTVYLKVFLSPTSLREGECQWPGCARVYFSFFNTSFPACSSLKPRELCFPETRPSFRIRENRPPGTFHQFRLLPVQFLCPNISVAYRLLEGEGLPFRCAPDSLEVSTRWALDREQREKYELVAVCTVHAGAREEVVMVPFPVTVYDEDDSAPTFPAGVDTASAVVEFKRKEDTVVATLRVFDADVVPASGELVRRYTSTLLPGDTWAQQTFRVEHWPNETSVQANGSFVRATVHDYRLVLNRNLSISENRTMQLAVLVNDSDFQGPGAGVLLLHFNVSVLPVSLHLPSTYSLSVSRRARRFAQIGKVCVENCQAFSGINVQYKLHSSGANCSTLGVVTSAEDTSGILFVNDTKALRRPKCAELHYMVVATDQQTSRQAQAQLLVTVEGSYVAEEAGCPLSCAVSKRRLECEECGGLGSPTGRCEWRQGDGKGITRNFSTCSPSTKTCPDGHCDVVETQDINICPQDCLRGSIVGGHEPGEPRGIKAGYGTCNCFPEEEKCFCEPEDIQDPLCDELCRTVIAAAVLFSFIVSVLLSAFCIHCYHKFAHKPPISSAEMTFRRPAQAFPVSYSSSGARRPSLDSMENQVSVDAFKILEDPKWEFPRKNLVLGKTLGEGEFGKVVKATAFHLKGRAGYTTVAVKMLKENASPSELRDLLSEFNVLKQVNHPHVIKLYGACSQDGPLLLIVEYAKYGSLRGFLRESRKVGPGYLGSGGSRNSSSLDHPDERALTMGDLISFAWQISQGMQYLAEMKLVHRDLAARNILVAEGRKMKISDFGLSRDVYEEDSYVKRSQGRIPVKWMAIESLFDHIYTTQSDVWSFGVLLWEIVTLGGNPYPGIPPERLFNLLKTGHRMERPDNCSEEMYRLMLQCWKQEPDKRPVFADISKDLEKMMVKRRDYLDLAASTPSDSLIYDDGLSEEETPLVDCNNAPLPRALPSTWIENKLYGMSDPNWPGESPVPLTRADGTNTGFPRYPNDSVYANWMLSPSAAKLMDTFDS

Q: Which results are given for `COc1ccc(OC)c(-n2nnc(S(=O)(=O)c3ccc(C(C)(C)C)cc3)c2C)c1` [SPA70]?
A: inhibition at 10 µM (AAK1): 11%; inhibition at 10 µM (ACVR1B): 0%; inhibition at 10 µM (AKT3): 0%; inhibition at 10 µM (AMPK-alpha1): 0%; %Inhibition by 10 μM SPA70 (ARK5): 41%; inhibition at 10 µM (AURKC): 2%; inhibition at 10 µM (BMX): 0%; inhibition at 10 µM (CDK9): 0%; inhibition at 10 µM (CDKL3): 6%; inhibition at 10 µM (DAPK3): 0%; inhibition at 10 µM (DDR1): 0%; %Inhibition by 10 μM SPA70 (DLK): 4%; inhibition at 10 µM (EPHA3): 26%; %Inhibition by 10 μM SPA70 (EPHA5): 0%; inhibition at 10 µM (EPHB1): 0%; inhibition at 10 µM (EPHB6): 0%; inhibition at 10 µM (ERK4): 0%; inhibition at 10 µM (FLT1): 0%; inhibition at 10 µM (GRK1): 0%; inhibition at 10 µM (GRK4): 0%; inhibition at 10 µM (HUNK): 15%; inhibition at 10 µM (INSR): 0%; %Inhibition by 10 μM SPA70 (JNK3): 9%; inhibition at 10 µM (LKB1): 0%; inhibition at 10 µM (MARK1): 0%; inhibition at 10 µM (MEK2): 4%; %Inhibition by 10 μM SPA70 (MET): 0%; inhibition at 10 µM (MKNK1): 44%; inhibition at 10 µM (MKNK2): 6%; inhibition at 10 µM (MST4): 15%; inhibition at 10 µM (MTOR): 0%; inhibition at 10 µM (NEK11): 34%; inhibition at 10 µM (NEK4): 21%; inhibition at 10 µM (RET): 0%; inhibition at 10 µM (RIPK1): 0%; inhibition at 10 µM (RIPK4): 0%; inhibition at 10 µM [1]: 14%; inhibition at 10 µM (SIK2): 0%; inhibition at 10 µM (TAOK2): 21%; inhibition at 10 µM (TAOK3): 2%; inhibition at 10 µM (YES): 2%; inhibition at 10 µM (YSK4): 0%

— publication PMC5622171 (Nature Communications, 2017)
